Consider 10 substances from patent US20090012000A1, “Anti-Viral Peptide and Use Thereof” (TOAGOSEI CO., LTD., priority 2006, published 2009).

Ends that are not written are not given here.

In experiment [1] the test system is HVT (turkey herpes virus). Description: HVT multiplication suppression test in CEF cells, titer by plaque assay. The experiment is classed as cell-based, turkey herpes virus (FC-126 strain). Conditions: for Ratio (relative ratio of virus titer, no peptide added = 1) / Titer: CEF cells, six days; for antiviral activity (viral multiplication suppression effect): result in words, peptide 10, 50 and 100 μM. As for the experimental part:
The antiviral activity (viral multiplication suppression effect) was examined for each sample antiviral peptide and each comparative sample peptide. In the present example, HVT (turkey herpes virus) was used as the target virus, and the titer was measured based on the plaque assay method.
That is to say, chicken embryo fibroblast (CEF) cells prepared from SPF (specific pathogen-free) embryonated hen's egg (purchased from Nisseiken Co., LTD) were monolayer-cultured at 37° C. using Leibowitz-McCoy 5A (1:1) mixed culture medium (LM medium). The culture was peeled from the culture dish by trypsin digestion and transferred to a 50 mL centrifugation tube. After centrifugal separation, the supernatant was discarded and the culture was suspended with LM medium.
HVT (FC-126 strain used as vaccine), which virus titer was measured beforehand, was diluted with this cell suspension to as to have 100 plaque forming units (PFU) or 400 PFU per 2 mL. This dilute solution was dispensed in each well of a 6-well plate, 2 mL in each. Then, the test peptides (Samples 1 to 4, Comparative Samples 1 to 4) were diluted with PBS to be at 2.1 mM, 1050 μM and 210 μM, and added to each well, 0.1 mL in each. The final concentration of each well after addition was respectively 100 μM, 50 μM and 10 μM. A well to which 0.1 mL of PBS not containing peptide was added was prepared as a reference.
Thereafter, the above 6-well plate was placed in a CO2 incubator (5% CO2), cultured at 37° C. for six days, and the number and size of HVT plaques that appeared were observed. Here, comparing with wells with no peptide added, when a drop in the number of plaques or a reduction in the size of plaques was not observed even when a peptide was added, the viral multiplication suppression effect of this peptide was determined to be none. On the other hand, a test peptide for which a well with smaller plaque number or plaque size was present, the titer of each well was measured, and the viral multiplication suppression effect (antiviral activity) was quantified by comparing with the quantity of virus with no peptide added.
For the method for measuring the HVT virus titer, cells in each well were recovered by trypsin digestion, serially diluted, mixed again with CEF cells, dispensed in a 6-well plate and cultured at 37° C., and the number of plaques appeared after six days were counted. The relative ratio of virus titer at each peptide concentration was determined with the virus titer (PFU/mL) of the well with no peptide added being 1. That is to say, the viral multiplication suppression effect of each test peptide can be compared using the value of this relative ratio (Ratio).

For experiment [2], the system named is A/New Calcdonia/20/99 (H1N1) influenza virus. Description: Influenza virus multiplication inhibition assay (plaque assay) in MDCK cells. It is filed as cell-based. The following applies: 48 hours; for Infectivity Titer, Trial 1: control 1.1 × 10^9; for Infectivity Titer, Trial 2: control 2.1 × 10^9.

Consider “RQARRNRRRRWR FKVKTTSPKKYFVRPN-CONH2 (RQARRNRRRRWRFKVKTTSPKKYFVRPN-NH2) [Sample 4]”, for which the figures for the “Ratio (relative ratio of virus titer, no peptide added = 1)” value in experiment [1] (peptide 10 μM), in experiment [1] (peptide 50 μM) and in experiment [1] (peptide 100 μM) were 1.0, 0.46 and 0.16, respectively. For the same substance, the Titer entry in experiment [1] (peptide 10 μM) is “(7.6 × 10^4) PFU/mL”; in experiment [1] (peptide 50 μM) it was “(3.5 × 10^4) PFU/mL”; in experiment [1] (peptide 100 μM), “(1.2 × 10^4) PFU/mL”. Besides, the “antiviral activity (viral multiplication suppression effect)” value (shortened to “antiviral activity”) in experiment [1] was “excellent antiviral activity”. Besides, the “Infectivity Titer, Trial 1” value in experiment [2] (peptide 100 μM) is recorded as 5.8 × 10^8 PFU/mL; in experiment [2] (peptide 200 μM), 2.8 × 10^8 PFU/mL.

As for “RQARRNRRRRWR EFFDAPE-CONH2 (RQARRNRRRRWREFFDAPE-NH2) [Sample 1]”, the “Ratio (relative ratio of virus titer, no peptide added = 1)” value in experiment [1] (peptide 100 μM) came out at 0.90.

With “EFFDAPE-COOH (EFFDAPE-OH; listed as Homo sapiens) [Comparative Sample 3, reference compound]”, in experiment [1], the “antiviral activity” value is “no viral multiplication suppression effect”.

On to “RKKKRKV-COOH (RKKKRKV-OH) [Comparative Sample 2, reference compound]”, for which the “antiviral activity” value in experiment [1] is recorded as “no viral multiplication suppression effect”.

In the case of “RQARRNRRRRWR-COOH (RQARRNRRRRWR-OH) [Comparative Sample 1, reference compound]”, the “antiviral activity” value in experiment [1] is given as “no viral multiplication suppression effect”.

On to “FKIKITTAPKRYCVRPN-NH2 [Comparative Sample 4, reference compound]”, for which the “antiviral activity” value in experiment [1] is reported as “no viral multiplication suppression effect”.

For the substance “RKKKRKV FKVKTTAPKRYCVRPN-CONH2 (RKKKRKVFKVKTTAPKRYCVRPN-NH2) [Sample 6]”, the results for the “Infectivity Titer, Trial 1” value in experiment [2] (peptide 100 μM) and in experiment [2] (peptide 200 μM) were 3.3 × 10^8 PFU/mL and 1.0 × 10^8 PFU/mL, respectively.

For the substance “RKKKRKV FKVKTTAPRRYCVRPN-CONH2 (RKKKRKVFKVKTTAPRRYCVRPN-NH2) [Sample 5]”, in experiment [2] (peptide 50 μM), the “Infectivity Titer, Trial 1” value is 1.0 × 10^9 PFU/mL and the “Infectivity Titer, Trial 2” value is 1.2 × 10^9 PFU/mL. In experiment [2] (peptide 100 μM), the “Infectivity Titer, Trial 1” value is given as 3.5 × 10^8 PFU/mL and the “Infectivity Titer, Trial 2” value is listed as 6.9 × 10^8 PFU/mL.

Regarding “RQARRNRRRRWR EFFDARE-CONH2 (RQARRNRRRRWREFFDARE-NH2) [Sample 2]”, in experiment [1] (peptide 100 μM), the “Ratio (relative ratio of virus titer, no peptide added = 1)” value is given as 0.80.

Take “RKKKRKV FKIKTTAPKRYCVRPN-CONH2 (RKKKRKVFKIKTTAPKRYCVRPN-NH2) [Sample 3]”: the “Ratio (relative ratio of virus titer, no peptide added = 1)” value in experiment [1] (peptide 100 μM) is on record as 0.30. In addition, in experiment [1], the “antiviral activity” value is reported as “excellent antiviral activity”.
